Literature values, collected in article PMC9069326 (RSC Advances, 2019).

Target: Gal-3 (Homo sapiens, UniProt P17931)
Conditions: cited from earlier work

Chain of Gal-3 (P17931 whole entry, species assumed): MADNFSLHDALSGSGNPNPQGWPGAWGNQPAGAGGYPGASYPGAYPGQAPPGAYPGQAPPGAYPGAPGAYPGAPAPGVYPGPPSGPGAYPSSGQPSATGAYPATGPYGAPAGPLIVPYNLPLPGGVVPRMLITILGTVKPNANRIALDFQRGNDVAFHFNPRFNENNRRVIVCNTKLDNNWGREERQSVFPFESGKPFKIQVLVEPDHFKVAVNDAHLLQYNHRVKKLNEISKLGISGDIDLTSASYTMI

In the case of `O=C[C@H](O)[C@@H](O)[C@@H](O)[C@H](O)CO` [Gal, β-Galactose], the Kd is listed as roughly 10 mM.

In the case of Galβ1-4GlcNAc [LacNAc], the Kd is given as 0.07 mM.
